Experimental data taken from patent publication US12054495B2, “Substituted macrocyclic compounds and related methods of treatment” (Alkermes, Inc., priority 2019, dated 2024).
Where two headings read alike, the source gives them in different places.

What was measured:
[1] = amide bond, 13-membered ring, HATU/DIEA, MeCN, 2.0 h
human hepatocytes = assay: Hepatocytes stability assay (human hepatocytes); assay type: in vitro ADME; details: scaled hepatic clearance divided by liver blood flow, fu assumed unity
Protocol: (§1) In vitro metabolic stability was assessed using cryopreserved hepatocytes from male Sprague Dawley rats and a pool of 50 mixed gender humans (BioIVT, Baltimore, MD). The incubation mixtures were prepared by mixing 250 μL of pre-warmed KHB (Krebs-Henseleit buffer) containing 2×10^6 cell/mL of hepatocytes with 250 μL of pre-warmed KHB buffer containing 2 μM of test compounds in a 48-well plate, giving a final concentration of 1 μM test compound (0.1% DMSO) and 1×10^6 cell/mL of hepatocytes. The reaction mixture was incubated at 37 degrees C. A 50 μL aliquot of incubation mixture was taken at time points (0, 15, 30, 60, 120 and 240 minutes) and transferred into a 96-well plate containing 300 μL ice-cold acetonitrile (containing 30 ng/mL of labetalol and 10 ng/mL of Naltrexone-d3 as internal standards) and immediately placed in ice to terminate the reaction. Samples were centrifuged, and supernatants were transferred into 96-well plates for liquid chromatography with tandem mass spectrometry (LC-MS/MS) analysis to monitor the depletion of the test compound.
(§2) Data was calculated as percent remaining by assuming zero-minute time point peak area ratio (analyte/IS) as 100% and dividing remaining time point peak area ratios by zero-minute time point peak area ratio. Data were fitted to a first-order decay model to determine half-life. From a plot of log (ln) peak area against time, the slope of the line was determined. Subsequently, half-life (T1/2) and intrinsic clearance (CLint) were calculated using the equations below: Elimination rate constant (k)=(−slope) Half-life (T1/2)min=0.693/k Intrinsic Clearance (CLint) (mL/min/million cells)=(V×0.693)/T1/2 V=incubation volume mL/number of cells The in vitro T1/2 was converted to in vitro intrinsic clearance (CLint,hep) in units of mL/min/kg using the formula shown below:
(§3) [formula] The in vitro intrinsic clearance (CLint,hep) was scaled to in vivo hepatic clearance (CL,hep) using the following equation which was adapted from a well-stirred model.
(§4) [formula] where Q is the liver blood flow and fu is the fraction unbound (assumed to be unity in this case). All parameters used in the calculation are shown below (Table 4).
(§5) The extraction ratio (ER) was calculated by dividing the hepatic clearance of a compound to the liver blood flow. The data reported in Table 5 were obtained according to the human hepatocytes stability assay described above.

[2] = Hepatocytes stability assay (human hepatocytes); assay type: in vitro ADME; details: both sexes, cryopreserved hepatocytes, 1 μM test compound, 1×10^6 cell/mL, 37 degrees C, read-out: CLint (μL/min/million cells)
Protocol: as §1, §2, §3, §4, §5

[3] = target: T1, human orexin-2 receptor (OX2R) (Homo sapiens, UniProt O43614); assay: Human OX2R IP1 assay; assay type: cell-based; details: T-Rex CHO cells stably overexpressing human OX2R, IP1 accumulation, 1 hr at 37 degrees C; mean EC50; ∧ = racemic mixture
T1 construct: expressed in transfected cells
T1 sequence (O43614 1-444): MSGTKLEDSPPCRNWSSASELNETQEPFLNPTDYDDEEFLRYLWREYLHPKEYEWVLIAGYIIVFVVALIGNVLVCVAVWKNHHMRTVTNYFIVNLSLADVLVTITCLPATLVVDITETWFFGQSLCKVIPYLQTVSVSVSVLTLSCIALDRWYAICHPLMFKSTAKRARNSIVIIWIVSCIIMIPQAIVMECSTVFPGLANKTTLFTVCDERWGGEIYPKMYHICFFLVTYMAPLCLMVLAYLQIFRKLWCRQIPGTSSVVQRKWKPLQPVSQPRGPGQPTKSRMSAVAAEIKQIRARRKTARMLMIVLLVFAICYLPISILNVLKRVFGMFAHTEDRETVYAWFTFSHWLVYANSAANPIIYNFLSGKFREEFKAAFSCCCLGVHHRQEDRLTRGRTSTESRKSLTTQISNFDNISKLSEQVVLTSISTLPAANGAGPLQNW
Protocol: T-Rex CHO cells stably overexpressing the human orexin-2 receptor (OX2R) were induced overnight with 1 μg/mL of doxycycline in a T225 flask. 24 hours post induction, cells were lifted with accutase and plated into a 384-well proxy plate at 30,000 cells/well. Cells were then treated with different test compounds in 1× stimulation buffer containing 10 mM Hepes, 1 mM CaCl2), 0.5 mM MgCl2, 4.2 mM KCl, 146 mM NaCl, 5.5 mM glucose, and 50 mM LiCl, pH 7.4, for 1 hr at 37 degrees C. Following incubation, the reaction was terminated by the addition of detection mix, which is composed of IP1-d2 and anti-IP1-cryptate diluted in lysis buffer as well as 1× stimulation buffer. The plates were allowed to incubate for 1 hour at room temperature and were then read in the EnVision® multimode plate reader, measuring inositol phosphate levels.
Cisbio IP1 is a cell-based functional assay quantifying the accumulation of inositol monophosphate (IP), a metabolite released as a result of orexin 2 receptor activation through the phospholipase C-Gq signaling pathway. This is a competitive immunoassay in which the IP1 produced by the cells upon receptor activation competes with the IP1 analog coupled to the d2 fluorophore (acceptor) for binding to an anti-IP1 monoclonal antibody labeled with Eu cryptate (donor). The measured HTRF-FRET based signal is inversely proportional to the IP1 concentration produced.
The EC50 values reported in Table 2 were obtained according to the human OX2R IP1 assay described above. Data are the mean EC50 values ±S.E.M. The compound methyl (2R,3S)-3-((methylsulfonyl)amino)-2-(((cis-4-phenylcyclohexyl)oxy)methyl)-piperidine-1-carboxylate is a reference compound which is disclosed in Example 5 of PCT publication no. WO2017/135306.

MDR1 = assay: MDCK-MDR1 permeability assay; assay type: in vitro ADME; details: dog; for Papp A→B at 2 h, 3 μM: MDCK-MDR1, MDCK-MDR1 cells, apical to basolateral, 3 μM test compound, 2 hours at 37 degrees C; for efflux ratio at 2 h, 3 μM: MDCK-MDR1, Papp (basolateral to apical) divided by Papp (apical to basolateral), MDCK-MDR1 cells, read-out: Efflux ratio (ER)
Protocol: The bidirectional permeability (Apical to Basal and Basal to Apical directions) of test compounds in MDCK-MIDR1 cells were evaluated using MDCK-MIDR1 cells seeded in Solvo PreadyPort™ MIDCK 96-well plate. Once the plate was received from ReadyCell (Barcelona, Spain), it was treated as per PreadyPort™ user's manual.
For the Apical to Basolateral (A→B) permeability, 80 μL of test compound (3 μM) co-dosed with LY (Lucifer Yellow) (100 μM) in HBSS (Hank's Balanced Salt Solution) assay buffer was added to the donor side (A) while 250 μL of HBSS buffer was added to the receiver side (B). For the Basolateral to Apical (B→A) permeability, 255 μL of test compound (3 μM) in HBSS assay buffer was added to the donor side (B) while 75 μL of HBSS buffer containing LY (100 μM) was added to the receiver side (A).
The plate was placed in an incubator set at 37 degrees C. After 10 minutes of pre-warming, 5 μL aliquot was taken from donor compartment and set aside as the dosing solution. The MDCK-MDR1 incubation plate was placed back into the incubator for 2 hours of incubation at 37 degrees C. After 2 hours of incubation, 25 μL and 5 μL aliquots were removed from the receiver and donor sides, respectively. To the 5 μL aliquots taken from the donor sides (before and after a 2-hour incubation) were diluted with 20 μL of the HBSS buffer. All samples were mixed with 150 μL with acetonitrile containing internal standard (IS) and 200 μL water, and analyzed by LC-MS/MS.
The apparent permeability (Papp) was calculated using the following formula: Papp=dQ/dt×1/A×C0 where: • dQ/dt: amount of translocated material over incubation time (nmol/s) • A: area of insert (0.14 cm^2 for PreadyPort™ MDR1-96) • C0: initial concentration of product applied in apical (A→B) or basal (B→A) compartment (nmol/mL)
The efflux ratio (ER) was measured by dividing the Papp (basolateral to apical direction) by Papp (apical to basolateral direction). It is a general measure of the involvement of active processes. An ER>2 is considered positive for active transport.
The data reported in Table 3 were obtained according to the MDCK-MIDR1 permeability assay described above.

Row | SMILES | ring closure, isolated yield ([1]; from CC(C)(C)OC(=O)N([C@H]1CCN[C@H]1COC1CCC(c2ccccc2OCC(=O)O)CC1)S(C)(=O)=O, 2.4 mM) [%] | ring closure, isolated yield ([1]; from CC(C)(C)OC(=O)N([C@H]1CCN[C@H]1COC1CCC(c2cccnc2OCC(=O)O)CC1)S(C)(=O)=O, 9.5 mM) [%] | Extraction Ratio (ER) (human hepatocytes) | hepatocyte CLint at 1 μM [2] [µL/min/1e6 cells] | EC50 [3] [nM] | Papp A→B at 2 h, 3 μM (MDR1) [×10⁻⁶ cm/s] | efflux ratio at 2 h, 3 μM (MDR1)
1 | CC(C)(C)OC(=O)N([C@H]1CCN2C(=O)COc3ccccc3C3CCC(CC3)OC[C@@H]12)S(C)(=O)=O | 31 | – | – | – | – | – | –
2 | CC(C)(C)OC(=O)N([C@H]1CCN2C(=O)COc3ncccc3C3CCC(CC3)OC[C@@H]12)S(C)(=O)=O | – | 41.4 | – | – | – | – | –
3 | CS(=O)(=O)N[C@@H]1CCCN2C(=O)COc3cccnc3[C@H]3CC[C@H](CC3)OC[C@H]12 (racemic) [Compound 15] | – | – | <0.22 | < 1.9 | 100 to 1000 | 0.08 | 22
4 | CS(=O)(=O)N[C@@H]1CCCN2C(=O)COc3ccncc3[C@H]3CC[C@H](CC3)OC[C@H]12 (racemic) [Compound 45] | – | – | <0.22 | < 1.9 | 100 to 1000 | 0.15 | 12
5 | CS(=O)(=O)N[C@@H]1CCCN2C(=O)COc3cnccc3[C@H]3CC[C@H](CC3)OC[C@H]12 (racemic) [Compound 47] | – | – | 0.31 | 3 | < 100 | 0.09 | 49
6 | CS(=O)(=O)N[C@H]1CCCN2C(=O)COc3ccccc3C3CC[C@@H](CO3)OCC12 (some centres unmarked) [Compound 8] | – | – | 0.46 | 5.8 | < 100 | 0.48 | 3.8
7 | CS(=O)(=O)N[C@H]1CCCN2C(=O)COc3ccccc3C3CC[C@H](CO3)OCC12 (some centres unmarked) [Compound 9] | – | – | 0.50 | 6.7 | < 100 | 0.45 | 2.6
8 | C[C@@H]1Oc2ccccc2C2CCC(CC2)OCC2[C@@H](NS(C)(=O)=O)CCCN2C1=O (some centres unmarked) [Compound 37] | – | – | 0.82 | 30 | < 100 | 0.91 | 27
9 | C[C@H]1Oc2ccccc2C2CCC(CC2)OCC2[C@@H](NS(C)(=O)=O)CCCN2C1=O (some centres unmarked) [Compound 38] | – | – | 0.82 | 30 | < 100 | 0.77 | 18
10 | C[C@H]1CN2CCC[C@H](NS(C)(=O)=O)C2COC2CCC(CC2)c2ccccc2O1 (some centres unmarked) [Compound 48] | – | – | 0.90 | 60 | < 100 | 7.3 | 1.5
11 | [2H][C@@H]1[C@@H]2C[C@H]([2H])[C@@]([2H])(c3cc(F)cc(F)c3OCC(=O)N3CCC[C@H](NS(C)(=O)=O)C3CO2)[C@@H]1[2H] (some centres unmarked) [Compound 50] | – | – | 0.70 | 16 | < 100 | 1.2 | 21
12 | [2H]C1([2H])COc2ccccc2C2CCC(CC2)OCC2[C@@H](NS(C)(=O)=O)CCCN21 (some centres unmarked) [Compound 60] | – | – | 0.89 | 54 | 100 to 1000 | 8.8 | 1.4
13 | C[C@H]1COc2ccccc2C2CCC(CC2)OCC2[C@@H](NS(C)(=O)=O)CCCN21 (some centres unmarked) [Compound 62] | – | – | 0.89 | 18 | > 1000 | 6.8 | 2.2
14 | C[C@@H]1COc2ccccc2C2CCC(CC2)OCC2[C@@H](NS(C)(=O)=O)CCCN21 (some centres unmarked) [Compound 63] | – | – | 0.86 | 40 | > 1000 | 9.1 | 0.75
